SMILES strings stand for the structures. Converted amounts (≈) assume the structure as drawn. Where two headings read alike, the source gives them in different places.

Experiment [1] deals with Staphylococcus epidermidis, Pseudomonas aeruginosa, Corynebacterium species, Aerobacter kleps and Candida albicans. Particulars: in words; cited from earlier work.
For experiment [2], the system named is Propionibacterium acnes. To be noted: cited from earlier work.
Experiment [3] deals with Propionibacterium acnes. Description: Minimum growth inhibitory concentration (MIC) on Propionibacterium acnes (Test Example 1). The class given is cell-based, Propionibacterium acnes (ATCC 6919). To be noted: for MIC: Cutibacterium acnes; for Antibacterial activity (in words): inhibition of proliferation of Propionibacterium acnes, as compared with eugenol. The procedure: The minimum growth inhibitory concentrations (MIC) of the compounds (2) and (3) as obtained in Production Examples 1 and 2 on Propionibacterium acnes were determined in the following manner.
59.0 g of a GAM (Gifu anaerobic medium) bouillon medium (manufactured by Nissui Pharmaceutical Co., Ltd.) was dissolved in 1 liter of purified water and a test compound was added thereto so as to give a concentration of 100 μg/ml. A serial 2-fold dilution of the mixture thus obtained was made with the medium followed by sterilization. 10 ml portions of the mixture were pipetted into test tubes and each inoculated with 0.1 ml of Propionibacterium acnes (ATCC 6919) which had been pre-incubated to give a cell concentration of 1×10^8 cells/mi. After stationary incubation under anaerobic conditions for 48 hours, the turbidity was measured at a wavelength of 660 nm. […] For comparison, MIC of eugenol, which had been known as having a relatively strong antibacterial activity, on Propionibacterium acnes was determined.

Setting [4] is: Propionibacterium acnes, GAM bouillon medium, anaerobic, 48 hours, turbidity at 660 nm, read-out: MIC.

On to `CC(C)=CCCC(C)=CCCC(C)=CCO` [farnesol, 3,7,11-trimethyldodeca-2,6,10-trien-1-ol], for which, in experiment [1], the growth inhibitory effect result is “exhibits a growth inhibitory effect”. The “antibacterial activity, used alone” value with Propionibacterium acnes [2] (farnesol used alone) is on record as “little activity”. For the same compound, the “antibacterial activity, used in combination” value in the experiment with Propionibacterium acnes [2] (in combination with phenyl hydroxyalkyl ether and glycerol monolaurate) was “exhibits an antibacterial activity”.
The term MIC denotes the least concentration at which growth counts as inhibited. In the experiment on Propionibacterium acnes [3] (48 h), `CC(C)CCCC(C)CCCC(C)CCCC(C)O` (centres unmarked) [compound (2), 6,10,14-trimethylpentadecan-2-ol] gave an MIC of 3.13 µg/mL (≈ 11.6 µM). Also, in the experiment with Propionibacterium acnes [3], the “Antibacterial activity (in words)” value is “intense antibacterial activity”.
Take `C=CCc1ccc(O)c(OC)c1` [eugenol]: the MIC with Propionibacterium acnes [3] (setting [4]) was found to be 50 µg/mL (≈ 304 µM).
`CC(C)=CCCC(C)=CCCC(C)=CCCC(C)O` (centres unmarked) [compound (3), 6,10,14-trimethyl-5,9,13-pentadecatrien-2-ol]: in the experiment on Propionibacterium acnes [3] (setting [4]), the minimal inhibitory concentration (MIC) is 1.56 µg/mL (≈ 5.9 µM). Moreover, in the experiment on Propionibacterium acnes [3], the “Antibacterial activity (in words)” value is “intense antibacterial activity”.

(Values after patent US5344850A, “Topical composition for preventing or treating acne vulgaris” (Takasago International Corporation, priority 1992, dated 1994).)
